Source: patent US6908930B2, “4-substituted 7-AZA-indolin-2-ones and their use as protein kinase inhibitors” (Sugen, Inc., priority 1999, dated 2005)
Where two headings read alike, the source gives them in different places.

Experiments:
EGFR = molecular target: T1, EGFR (Homo sapiens, UniProt P00533); assay: Assay for modulation of EGFR activity (ELISA); format: biochemical
T1 construct: A431 […] cell lysate is stored at −80° C; host or cells: A431 cell lysate
Procedure: Using the following reagents, supplies, and method, the ability of compounds of the invention to modulate the in vitro activity of EGFR can be readily determined in an ELISA.
A431 […] cell lysate is stored at −80° C.
ATP/MnCl2 phosphorylation mix is prepared by adding 300 μL of 1.0 mM ATP and […] of 1M MnCl2 to 9.2 mL of dH2O and mixing. Ten mL of phosphorylation mix is enough for about 6 assay plates. Note that the mixture should be made fresh and kept on ice immediately before use, and that although the preferred ATP is fresh from powder stock, any remaining stock solution of ATP may be frozen at −20° C. in small aliquots to be used at a later time.
(§1) Coat Corning 96 well ELISA plates with 0.5 μg per well with SUMO1 in a volume of 100 μL PBS overnight, at 4° C. Remove unbound SUMO1 from wells by inverting plate to remove liquid. Wash 1× with distilled H2O by filling wells. Pat the plate on a paper towel to remove excess liquid.
Add 150 μL of Blocking Buffer to each well. Incubate for 30 minutes at room temperature, with shaking. Wash plate 3× with deionized water, then once with TBST. Pat plate on a paper towel to remove excess liquid and bubbles.
Dilute lysate in PBS (7 μg lysate/[…]) and add 100 μL of diluted lysate to each well. Shake at room temperature for 60 minutes. Wash 1× with distilled H2O by filling wells. Pat the plate on a paper towel to remove excess liquid.
Add 120 μL TBST to ELISA plate containing captured EGFR.
Dilute drugs/extracts 1:10 (unless specified otherwise) in TBST in 96-well polypropylene plates. (i.e., 10 μL compound+90 μL TBST). Add 13.5 μL diluted drugs/extracts to ELISA plate. […] Incubate for 30 minutes while shaking at room temperature.
Approximately 150 μL final volume in well with 3 uM ATP/5 mM MnCl2 final concentration in well. Incubate 5 minutes while shaking. Note that this is a timed event. It is critical that ATP/MnCl2 phosphorylates the receptor for only 5 minutes. It is best to add the ATP/MnCl2 with an automated 96 place pipettor workstation, then 5 minutes later stop the reaction with EDTA using the same workstation. Alternatively, addition can be performed using a 12 channel pipettor 1 row at a time, leaving 20 seconds between each row so that the reaction may be stopped with EDTA exactly 5 minutes later (this depends on the number of plates being phosphorylated in one batch). Shake between each addition.
[…] This is done using either the same work station as above, or the same timing method employed with the 12 channel pipettor. After the EDTA has been added, shake for 1 minute. Wash 4× with deionized water, twice with TBST.
Add 100 μL per well of anti-phosphotyrosine (1:3000 dilution in TBST). Incubate 30-45 minutes at room temperature, with shaking. Wash 1× with distilled H2O by filling wells. Pat the plate on a paper towel to remove excess liquid.
Incubate 30 minutes at room temperature, with shaking. Wash 1× with distilled H2O by filling wells. Pat the plate on a paper towel to remove excess liquid.
Add 100 μL of ABTS/H2O2 solution to each well. Incubate 5 to 10 minutes while shaking. Remove any bubbles. If necessary stop reaction with the addition of 100 μL of 0.2M HCl per well.
(§2) Read assay on Dynatech MR7000 ELISA reader.

PDGFR = molecular target: T2, PDGFR (Homo sapiens, UniProt P09619); assay: Assay for modulation of PDGFR activity (ELISA); format: biochemical; details: read-out: bio PDGFR IC50
T2 construct: expressed in transfected cells; host or cells: NIH3T3
T2 sequence (P09619 33-1106, species assumed): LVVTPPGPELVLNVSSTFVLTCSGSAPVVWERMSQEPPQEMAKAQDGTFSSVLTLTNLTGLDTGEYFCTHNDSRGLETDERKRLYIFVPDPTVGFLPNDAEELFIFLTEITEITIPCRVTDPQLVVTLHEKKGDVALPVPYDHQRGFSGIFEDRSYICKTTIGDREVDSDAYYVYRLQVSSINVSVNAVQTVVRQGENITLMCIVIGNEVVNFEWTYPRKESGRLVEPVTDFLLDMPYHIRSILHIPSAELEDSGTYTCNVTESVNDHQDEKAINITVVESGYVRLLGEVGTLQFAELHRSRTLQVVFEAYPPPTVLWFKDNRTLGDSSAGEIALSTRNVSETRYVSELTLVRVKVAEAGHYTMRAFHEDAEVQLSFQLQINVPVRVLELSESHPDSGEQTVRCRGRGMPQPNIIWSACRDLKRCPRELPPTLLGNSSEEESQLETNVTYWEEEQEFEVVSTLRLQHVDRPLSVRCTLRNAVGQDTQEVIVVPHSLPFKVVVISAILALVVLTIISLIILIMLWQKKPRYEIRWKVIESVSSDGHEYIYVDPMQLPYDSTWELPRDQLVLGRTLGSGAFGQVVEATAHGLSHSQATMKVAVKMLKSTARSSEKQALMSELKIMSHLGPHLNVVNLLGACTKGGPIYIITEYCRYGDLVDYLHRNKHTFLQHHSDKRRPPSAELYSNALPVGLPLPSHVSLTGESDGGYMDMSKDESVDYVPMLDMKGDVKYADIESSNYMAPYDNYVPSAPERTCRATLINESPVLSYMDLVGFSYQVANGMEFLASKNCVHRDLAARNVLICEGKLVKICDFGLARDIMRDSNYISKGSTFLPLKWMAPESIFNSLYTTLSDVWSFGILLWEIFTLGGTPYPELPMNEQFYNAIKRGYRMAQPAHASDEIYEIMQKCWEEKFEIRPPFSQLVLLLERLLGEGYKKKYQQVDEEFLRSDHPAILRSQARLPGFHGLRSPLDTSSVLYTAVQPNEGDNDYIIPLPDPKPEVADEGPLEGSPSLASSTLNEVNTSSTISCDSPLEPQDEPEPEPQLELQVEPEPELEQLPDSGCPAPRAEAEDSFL
Procedure: Using the following reagents, supplies, and methods, the ability of the compounds of the invention to modulate the in vitro activity of the PDGFR can be readily determined in an enzyme-linked immunosorbent assay (ELISA).
Monoclonal anti-PDGFR antibody (28D4C10) is stored at −20° C. in 50 mL tubes prior to use.
Lysates from PDGFR-β expressing NIH3T3 cells are obtained and stored at −80° C. in 1 mL aliquots. PDGFR-β expression in eukaryotic cells is well known in the art. Lysates are prepared by the following method. Place carrier dishes in ice trays, and after cooling, remove the media and replace with ice cold PBS. Remove the PBS and repeat. […] Take up lysate with a pipettor and add to a 30 mL centrifuge tube on ice. Vortex the tubes for 30-60 seconds and then centrifuge for 10 minutes at 7000 rpm in a J-20 rotor which has been precooled to below 0° C. Recover the supernatants and combine them in a 250 mL tube and place on ice. Perform protein determination to measure the total quantity of protein per mL of solution. Aliquot the lysate into 1 mL fractions and store at −80° C.
as §1, with “28D4C10 antibody” for “with SUMO1”, “μl” for “μL”, “and remove” for “Remove”, “antibody, 28D4C10,” for “SUMO1”
Add 150 μL of Blocking Buffer to each well. Incubate for 30 minutes at room temperature, with shaking and wash plate 3× with deionized water, then once with TBST. Pat plate on a paper towel to remove excess liquid and bubbles
Dilute lysate in PBS (10 mg lysate/100 μL PBS). Add 100 μL of diluted lysate to each well. Shake at room temperature for 60 min. Wash plate 3× with deionized water, then once with TBST. Pat plate on a paper towel to remove excess liquid and bubbles.
Add 80 μL Kinase Buffer to ELISA plate containing captured PDGFR.
Dilute drugs/extracts 1:10 (unless specified otherwise) in TBS+10% DMSO in 96-well polypropylene plates. (i.e., 10 μL compound+90 μL (TBS+10% DMSO)). Add 10 μL diluted drugs/extracts to ELISA plate. […] Incubate for 30 minutes while shaking at room temperature.
After 30 minutes stop reaction with addition of 10 μL of 200 mM EDTA pH 8.0 for 20 mM final in well. Wash 4× with deionized water, twice with TBST.
Incubate 30-45 minutes at room temperature, with shaking. Wash plate 3× with deionized water, then once with TBST. Pat plate on a paper towel to remove excess liquid and bubbles.
Incubate 30 minutes at room temperature with shaking. Wash plate 3× with deionized water, then once with TBST. Pat plate on a paper towel to remove excess liquid and bubbles.
Add 100 μL of ABTS/H2O2 solution to each well. Incubate 10 to 30 minutes while shaking. Remove any bubbles. If necessary stop reaction with the addition of 100 μL of 0.2M HCl per well
as §2

T1 sequence (P00533 25-1210): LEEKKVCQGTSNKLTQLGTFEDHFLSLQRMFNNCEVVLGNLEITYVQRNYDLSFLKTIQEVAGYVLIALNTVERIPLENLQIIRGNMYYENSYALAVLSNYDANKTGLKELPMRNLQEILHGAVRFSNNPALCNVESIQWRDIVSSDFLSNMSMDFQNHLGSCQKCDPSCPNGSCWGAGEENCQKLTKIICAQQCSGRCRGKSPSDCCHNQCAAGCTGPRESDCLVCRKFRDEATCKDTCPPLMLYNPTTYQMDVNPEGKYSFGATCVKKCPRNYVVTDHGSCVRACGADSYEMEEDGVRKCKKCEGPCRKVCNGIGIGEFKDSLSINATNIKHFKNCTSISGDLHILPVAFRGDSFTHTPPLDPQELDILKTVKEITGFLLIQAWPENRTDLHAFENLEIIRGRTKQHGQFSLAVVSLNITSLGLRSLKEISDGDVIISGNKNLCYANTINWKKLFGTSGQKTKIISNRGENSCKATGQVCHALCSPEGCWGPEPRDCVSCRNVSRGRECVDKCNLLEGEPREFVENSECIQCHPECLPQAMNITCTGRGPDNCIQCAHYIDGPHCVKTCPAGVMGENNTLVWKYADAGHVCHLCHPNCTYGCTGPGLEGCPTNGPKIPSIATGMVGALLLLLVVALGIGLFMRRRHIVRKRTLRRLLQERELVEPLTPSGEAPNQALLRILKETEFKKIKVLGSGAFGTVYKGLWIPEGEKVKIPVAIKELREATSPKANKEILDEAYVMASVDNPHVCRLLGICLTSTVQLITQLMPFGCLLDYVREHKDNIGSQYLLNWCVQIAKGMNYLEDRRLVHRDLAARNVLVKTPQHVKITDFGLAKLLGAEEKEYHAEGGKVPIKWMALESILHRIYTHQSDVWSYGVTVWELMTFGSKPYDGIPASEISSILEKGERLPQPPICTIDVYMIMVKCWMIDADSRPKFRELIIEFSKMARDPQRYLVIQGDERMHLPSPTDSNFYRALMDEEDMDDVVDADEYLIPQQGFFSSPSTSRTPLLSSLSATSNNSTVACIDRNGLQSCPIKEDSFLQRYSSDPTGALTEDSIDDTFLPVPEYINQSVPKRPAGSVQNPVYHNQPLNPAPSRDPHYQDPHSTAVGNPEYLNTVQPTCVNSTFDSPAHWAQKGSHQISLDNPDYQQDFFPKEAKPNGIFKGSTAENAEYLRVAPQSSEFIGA

Structure (SMILES)	IC50 (EGFR; read-out: bio EGFR IC50) [nM]	IC50 (PDGFR) [nM]	IC50 (EGFR) [nM]
Cc1[nH]c(/C=C2\C(=O)Nc3ncnc(Nc4ccc(F)c(Cl)c4)c32)c(C)c1CCC(=O)N1CCOCC1 [Formula 30]	770	> 20000	–
Cc1c(C(=O)N2CCN(C)CC2)c[nH]c1/C=C1\C(=O)Nc2ncnc(Nc3ccc(F)c(Cl)c3)c21 [Formula 29]	–	–	450
Cc1[nH]c(/C=C2\C(=O)Nc3ncnc(Nc4ccc(F)c(Cl)c4)c32)c(C)c1CCC(=O)N1CCCC1 [Formula 24]	890	> 20000	–
Cc1cc(C(=O)N2CCN(C)CC2)[nH]c1/C=C1\C(=O)Nc2ncnc(Nc3ccc(F)c(Cl)c3)c21 [Formula 39]	–	–	4
Cc1cc(C)c(/C=C2\C(=O)N(C)c3ncnc(Nc4ccc(F)c(Cl)c4)c32)[nH]1 [Formula 38]	5600	–	–
Cc1cc(C(=O)N2CCOCC2)[nH]c1/C=C1\C(=O)Nc2ncnc(Nc3ccc(F)c(Cl)c3)c21 [Formula 26]	–	–	160
Cc1cc(CCC(=O)O)[nH]c1/C=C1\C(=O)N(C)c2ncnc(Nc3ccc(F)c(Cl)c3)c21 [Formula 42]	10400	–	–
O=C1Nc2ncnc(Nc3ccc(F)c(Cl)c3)c2/C1=C/c1ccc(C(=O)N2CCOCC2)[nH]1 [Formula 33]	900	> 20000	–
Cc1[nH]c(C=C2C(=O)Nc3ncnc(Nc4ccc(F)c(Cl)c4)c32)c(C)c1CCC(=O)O [Formula 19, 3-{5-[4-(3-CHLORO-4-FLUORO-PHENYLAMINO)-6-OXO-6,7-DIHYDRO-PYRROLO[2,3-D]PYRIMIDIN-5-YLIDENEMETHYL]-2,4-DIMETHYL-1H-PYRROL-3-YL}-PROPIONIC ACID]	170	12800	–
Cc1[nH]c(/C=C2\C(=O)N(C)c3ncnc(Nc4ccc(F)c(Cl)c4)c32)c(C)c1CCC(=O)O [Formula 40]	4200	–	–
Cc1[nH]c(/C=C2\C(=O)Nc3ncnc(Nc4ccc(F)c(Cl)c4)c32)c(C)c1C(=O)N1CCN(C)CC1 [Formula 41]	540	> 20000	–

Further lines, results first:

IC50 (EGFR; read-out: bio EGFR IC50) [nM]	IC50 (PDGFR) [nM]	IC50 (EGFR) [nM]	Structure (SMILES)
< 156	–	–	Cc1cc(C(=O)N2CC(C)N(C)C(C)C2)[nH]c1/C=C1\C(=O)Nc2ncnc(Nc3ccc(F)c(Cl)c3)c21 (stereo not shown) [Formula 53]
36	–	–	Cc1cc(C(=O)O)[nH]c1/C=C1\C(=O)Nc2ncnc(Nc3ccc(F)c(Cl)c3)c21 [Formula 47]
> 20000	–	–	Cc1[nH]c(/C=C2\C(=O)N(C)c3ncnc(Nc4ccc(F)c(Cl)c4)c32)c(C)c1CCCN1CCOCC1 [Formula 44]
860	> 20000	–	Cc1[nH]c(/C=C2\C(=O)Nc3ncnc(Nc4ccc(F)c(Cl)c4)c32)c(C)c1C(=O)N1CCOCC1 [Formula 43]
< 156	–	–	CCN1CCN(C(=O)c2cc(C)c(/C=C3\C(=O)Nc4ncnc(Nc5ccc(F)c(Cl)c5)c43)[nH]2)CC1 [Formula 54]
1.2	–	–	Cc1cc(C(=O)N2CCOCC2)[nH]c1/C=C1\C(=O)Nc2ncnc(NC(C)c3ccccc3)c21 (stereo not shown) [Formula 46]
50	> 20000	–	CN1CCN(C(=O)c2ccc(/C=C3\C(=O)Nc4ncnc(Nc5ccc(F)c(Cl)c5)c43)[nH]2)CC1 [Formula 45]
